Experimental data as given in patent publication US20210395256A1, “TYROSINE KINASE INHIBITORS, COMPOSITIONS AND METHODS THERE OF” (Betta Pharmaceuticals Co., Ltd., priority 2018, published 2021).
Read-outs that look alike come from different tables or passages of the source.

Columns and labels:
[1] = target: T1, Ba/F3-ETV6-NTRK3 (Homo sapiens, UniProt Q16288); assay: Ba/F3-ETV6-NTRK3 cells proliferation assay; format: cell-based; conditions: 72 h, CellTiter Glo
T1 construct: Ba/F3 cells with TPM3-NTRK1 or ETV6-NTRK3 fusion mutation gene stably overexpressed named Ba/F3-TPM3-NTRK1 and Ba/F3-ETV6-NTRK3; fused on or other part: P41212 (Transcription factor ETV6)
Description: (§1) Example 202 Ba/F3-TPM3-NTRK1 and Ba/F3-ETV6-NTRK3 cells proliferation assay
(§2) Cell line: Ba/F3 cells with TPM3-NTRK1 or ETV6-NTRK3 fusion mutation gene stably overexpressed named Ba/F3-TPM3-NTRK1 and Ba/F3-ETV6-NTRK3.
(§3) RPMI 1640 and 10% FBS and 1% PS and 2 ug/mL puromycin.
(§4) b) Collect cell to a 15 mL centrifuged tube, centrifuge at 1000 rpm for 5 min. Discard the supernatant, count, and make the cell density at 1.49×10^4 cells/mL, then place it in a 37° C., 5% CO2 incubator.
(§5) a) The test compound (20 mM stock solution) was diluted to 60 μM with 100% DMSO as starting concentration then 3-fold serial diluted with “9+0” concentrations. in a 96-well dilution plate (Thermo, Cat. No. 249944);
(§6) b) The above compound solution was diluted 1:20 times with culture medium to prepare a 10 fold working solution;
(§7) a) Take cells in log phase growth, centrifuge at 1000 rpm for 5 min, then resuspend the cells with culture medium, then count cells;
(§8) b) Cells were seeded to 96-well cell culture plate with density at 2000 cells/well;
(§9) a) Compounds prepared at step 2 were added to cell plate with 15 μL per well, the final concentrations were 300, 100, 33.33, 11.11, 3.70, 1.23, 0.41, 0.14, 0.05 and 0 nM, and the final concentration of DMSO was 0.5%. The blank control well was a culture medium (0.5% DMSO);
(§10) c) The cells were incubated for an additional 72 h in the incubator.
(§11) a) Remove the 96-well cell culture plate and add 50 μl of CTG reagent (CellTiter Glo kit, promega, Cat #G7573).
(§12) b) Plate was shaked for 2 min and then let it cool for 30 min at room temperature.
(§13) c) The Luminescence signal value was read using a PerkinElmer reader.
(§14) Experimental Data Analysis
(§15) Data were analyzed using GraphPad Prism 6.0 software to obtain a fitted curve of compound activity.
(§16) Fit the Compound IC50 from non-linear regression equation:
(§17) Y=Bottom+(Top-Bottom)/(1+10^((Log IC50-X)×HillSlope));
(§18) X: The log of the concentration of the compound; Y: Luminescence value.

[2] = target: T2, Ba/F3-TPM3-NTRK1 (Homo sapiens, UniProt P04629); assay: Ba/F3-TPM3-NTRK1 cells proliferation assay; format: cell-based; conditions: 72 h, CellTiter Glo
T2 construct: expressed in transfected cells; host or cells: Ba/F3; the other entry of the earlier key: TPM3 (P06753, Tropomyosin alpha-3 chain)
Description: as §1, §2, §3, §4, §5, §6, §7, §8, §9, §10, §11, §12, §13, §14, §15, §16, §17, §18

[3] = target: TrkA kinase (Homo sapiens, UniProt P04629); assay: TrkA kinase assay (mobility shift assay); format: biochemical; conditions: read-out: Trk A Kinase IC50
Method in brief: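 Ten-point compound series was preincubated 10 min at room temperature with TrkA, then FAM-peptide plus ATP added in HEPES pH 7.5/Brij-35 buffer and reacted at 28 °C before EDTA quench.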

[4] = Liver microsomes metabolic stability assay, human; format: in vitro ADME; conditions: human liver microsomes 0.5 mg/mL, 37° C.
Description: (§19) Example 203 Liver Microsomes Metabolic Stability Assay
(§20) Pooled human liver microsomes (Cat. 452117) were purchased from Corning. Pooled male rat liver microsomes (Cat. R1000) and pooled male mouse liver microsomes (Cat. M1000) were purchased from XENOTECH. Microsomes were stored at −80° C.
(§21) 1) Make a master solution containing phosphate buffer, ultra-pure H2O and MgCl2 solution according to Table 14.
(§22) 2) Two separated experiments were performed as follows.
(§23) a) With NADPH: 10 μL of 20 mg/mL liver microsomes and 40 μL of 10 mM NADPH were added to the incubations. The final concentrations of microsomes and NADPH were 0.5 mg/mL and 1 mM, respectively.
(§24) b) Without NADPH: 10 μL of 20 mg/mL liver microsomes and 40 μL of ultra-pure H2O were added to the incubations. The final concentration of microsomes was 0.5 mg/mL.
(§25) 3) The reaction was started with the addition of 4 μL test compounds solutions or control compound solution (verapamil) at the final concentration of 2 μM and carried out at 37° C.
(§26) 4) Aliquots of 50 μL were taken from the reaction solution at 0, 15, 30, 45 and 60 min. The reaction solutions were stopped by the addition of 4 volumes of cold acetonitrile with 1S (100 nM alprazolam, 200 nM caffeine, 200 nM labetalol and 2 μM ketoprofen). Samples were centrifuged at 3,220 g for 40 minutes. Aliquot of 100 μL of the supernatant was mixed with 100 μL of ultra-pure H2O and then used for LC-MS/MS analysis. All experiments were performed in duplicate.
(§27) The slope value, k, was determined by linear regression of the natural logarithm of the remaining percentage of the parent drug vs. incubation time curve.
(§28) The in vitro half-life (in vitro t1/2) was determined from the slope value:
(§29) Conversion of the in vitro t1/2 (in min) into the in vitro intrinsic clearance (in vitro CLint, in μL/min/mg proteins) was done using the following equation (mean of duplicate determinations): […]
(§30) The control compound (verapamil) was included in the assay. Any value of the compounds that was not within the specified limits will be rejected and the experiment will be repeated.

[5] = Liver microsomes metabolic stability assay, rat; format: in vitro ADME; conditions: rat liver microsomes 0.5 mg/mL, 37° C.
Description: as §19, §20, §21, §22, §23, §24, §25, §26, §27, §28, §29, §30

[6] = Liver microsomes metabolic stability assay, mouse; format: in vitro ADME; conditions: mouse liver microsomes 0.5 mg/mL, 37° C.
Description: as §19, §20, §21, §22, §23, §24, §25, §26, §27, §28, §29, §30

Sequence of TrkA kinase (P04629 33-796): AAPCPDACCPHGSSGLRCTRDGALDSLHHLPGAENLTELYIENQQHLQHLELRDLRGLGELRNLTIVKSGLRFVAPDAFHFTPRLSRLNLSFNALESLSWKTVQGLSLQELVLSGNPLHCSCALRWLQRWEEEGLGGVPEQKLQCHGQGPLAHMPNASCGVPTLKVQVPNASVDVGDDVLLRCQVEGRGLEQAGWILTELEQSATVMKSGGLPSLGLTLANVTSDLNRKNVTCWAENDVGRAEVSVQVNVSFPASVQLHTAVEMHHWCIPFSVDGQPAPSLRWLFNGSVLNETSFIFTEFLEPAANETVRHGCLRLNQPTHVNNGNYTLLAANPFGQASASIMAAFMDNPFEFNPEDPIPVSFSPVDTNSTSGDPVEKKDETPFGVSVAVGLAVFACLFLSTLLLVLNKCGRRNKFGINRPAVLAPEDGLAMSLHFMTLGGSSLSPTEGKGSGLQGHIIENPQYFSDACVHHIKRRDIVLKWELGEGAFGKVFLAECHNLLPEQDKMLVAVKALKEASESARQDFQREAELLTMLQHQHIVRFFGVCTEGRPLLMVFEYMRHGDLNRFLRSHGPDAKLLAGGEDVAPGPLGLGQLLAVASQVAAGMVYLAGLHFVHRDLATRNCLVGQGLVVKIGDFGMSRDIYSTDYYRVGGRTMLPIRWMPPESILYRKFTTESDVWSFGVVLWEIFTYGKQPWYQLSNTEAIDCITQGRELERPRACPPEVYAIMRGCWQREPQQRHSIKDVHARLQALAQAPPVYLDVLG
T1 sequence (Q16288 whole entry, the tested form may be a part): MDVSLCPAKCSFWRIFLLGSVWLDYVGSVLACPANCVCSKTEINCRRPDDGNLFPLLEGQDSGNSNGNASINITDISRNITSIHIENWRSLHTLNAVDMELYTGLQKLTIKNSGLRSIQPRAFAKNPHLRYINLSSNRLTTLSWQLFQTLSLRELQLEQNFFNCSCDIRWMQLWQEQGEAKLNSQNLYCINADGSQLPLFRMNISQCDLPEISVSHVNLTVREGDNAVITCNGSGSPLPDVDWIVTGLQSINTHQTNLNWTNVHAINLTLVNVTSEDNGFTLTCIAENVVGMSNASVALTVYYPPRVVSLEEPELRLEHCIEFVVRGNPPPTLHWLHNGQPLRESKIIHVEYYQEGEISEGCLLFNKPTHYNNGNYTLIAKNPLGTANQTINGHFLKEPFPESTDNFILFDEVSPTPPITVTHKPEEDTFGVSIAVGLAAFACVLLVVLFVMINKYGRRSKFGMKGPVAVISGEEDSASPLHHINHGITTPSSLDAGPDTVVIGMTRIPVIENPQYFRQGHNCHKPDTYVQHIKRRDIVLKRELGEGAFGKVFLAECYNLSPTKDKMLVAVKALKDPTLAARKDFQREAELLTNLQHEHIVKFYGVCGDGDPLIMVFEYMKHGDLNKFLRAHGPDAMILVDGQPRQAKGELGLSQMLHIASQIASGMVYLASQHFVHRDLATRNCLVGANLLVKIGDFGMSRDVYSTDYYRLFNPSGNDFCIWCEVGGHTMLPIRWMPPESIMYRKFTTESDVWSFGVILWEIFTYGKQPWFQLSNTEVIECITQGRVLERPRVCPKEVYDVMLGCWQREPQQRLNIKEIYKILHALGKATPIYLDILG
T2 sequence (P04629 510-796 limits assumed): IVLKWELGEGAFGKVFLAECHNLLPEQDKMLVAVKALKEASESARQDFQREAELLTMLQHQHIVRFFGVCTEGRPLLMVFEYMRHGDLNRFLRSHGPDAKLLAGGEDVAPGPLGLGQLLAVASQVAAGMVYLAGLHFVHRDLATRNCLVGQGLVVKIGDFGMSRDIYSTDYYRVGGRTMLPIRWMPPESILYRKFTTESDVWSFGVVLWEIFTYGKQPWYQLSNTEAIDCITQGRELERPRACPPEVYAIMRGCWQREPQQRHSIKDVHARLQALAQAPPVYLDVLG

IC50 [1] [nM] | IC50 [2] [nM] | IC50 ([3]; class symbols) [nM] | Structure (SMILES) | also measured
2.45 | 2.93 | 10 to 50 | Fc1ccc(F)c([C@H]2CCCN2c2ccn3ncc(-c4nnc(C5CCNCC5)[nH]4)c3n2)c1 [Compound 22, (R)-5-(2-(2,5-difluorophenyl)pyrrolidin-1-yl)-3-(5-(piperidin-4-yl)-4H-1,2,4-triazol-3-yl)pyrazolo[1,5-a]pyrimidine] | 
7.73 | 4.67 |  | COC(=O)[C@@H]1CCCN1c1cc2[nH]c(-c3cnn4ccc(N5CCC[C@@H]5c5cc(F)ccc5F)nc34)nc2cc1C#N [Compound 166, methyl (5-cyano-2-(5-((R)-2-(2,5-difluorophenyl)pyrrolidin-1-yl)pyrazolo[1,5-a]pyrimidin-3-yl)-1H-benzo[d]imidazol-6-yl)-L-prolinate] | IC50 ([3]; numeric values): 2.5 nM
10 | 12.5 | > 50 | Fc1ccc(F)c([C@H]2CCCN2c2ccn3ncc(-c4nnc(-c5ccc(C(F)(F)F)nc5)[nH]4)c3n2)c1 [Compound 14, (R)-5-(2-(2,5-difluorophenyl)pyrrolidin-1-yl)-3-(5-(6-(trifluoromethyl)pyridin-3-yl)-4H-1,2,4-triazol-3-yl)pyrazolo[1,5-a]pyrimidine] | 
4.21 | 9.18 | > 50 | CCOC(=O)c1nnc(-c2cnn3ccc(N4CCC[C@@H]4c4cc(F)ccc4F)nc23)[nH]1 [Compound 16, ethyl (R)-5-(5-(2-(2,5-difluorophenyl)pyrrolidin-1-yl)pyrazolo[1,5-a]pyrimidin-3-yl)-4H-1,2,4-triazole-3-carboxylate] | 
2.83 | 3.81 | 10 to 50 | OC1CCC[C@H](c2nnc(-c3cnn4ccc(N5CCC[C@@H]5c5cc(F)ccc5F)nc34)[nH]2)C1 (stereo partly drawn) [Compound 18, (3S)-3-(5-(5-((R)-2-(2,5-difluorophenyl)pyrrolidin-1-yl)pyrazolo[1,5-a]pyrimidin-3-yl)-4H-1,2,4-triazol-3-yl)cyclohexan-1-ol] | 
2.72 | 7.71 | > 50 | COC(=O)N[C@@H](C)c1nnc(-c2cnn3ccc(N4CCC[C@@H]4c4cc(F)ccc4F)nc23)[nH]1 [Compound 12, methyl ((S)-1-(5-(5-((R)-2-(2,5-difluorophenyl)pyrrolidin-1-yl)pyrazolo[1,5-a]pyrimidin-3-yl)-4H-1,2,4-triazol-3-yl)ethyl)carbamate] | 
1.55 |  |  | Fc1ccc(F)c([C@H]2CCCN2c2ccn3ncc(-c4nnc(-c5ccncc5)[nH]4)c3n2)c1 [Compound 8, (R)-5-(2-(2,5-difluorophenyl)pyrrolidin-1-yl)-3-(5-(pyridin-4-yl)-4H-1,2,4-triazol-3-yl)pyrazolo[1,5-a]pyrimidine] | 
2.11 | 2.05 | 10 to 50 | Oc1ccc(-c2nnc(-c3cnn4ccc(N5CCC[C@@H]5c5cc(F)ccc5F)nc34)[nH]2)cc1 [Compound 9, (R)-4-(5-(5-(2-(2,5-difluorophenyl)pyrrolidin-1-yl)pyrazolo[1,5-a]pyrimidin-3-yl)-4H-1,2,4-triazol-3-yl)phenol] | 
1.2 | 1.16 | 10 to 50 | Fc1ccc(F)c([C@H]2CCCN2c2ccn3ncc(-c4nnc(-c5cnccn5)[nH]4)c3n2)c1 [Compound 10, (R)-5-(2-(2,5-difluorophenyl)pyrrolidin-1-yl)-3-(5-(pyrazin-2-yl)-4H-1,2,4-triazol-3-yl)pyrazolo[1,5-a]pyrimidine] | 
19.6 | 13.2 |  | N#Cc1cc2nc(-c3cnn4ccc(N5CCC[C@@H]5c5cc(F)ccc5F)nc34)[nH]c2cc1N1CCC[C@H]1C(=O)O [Compound 167, (5-cyano-2-(5-((R)-2-(2,5-difluorophenyl)pyrrolidin-1-yl)pyrazolo[1,5-a]pyrimidin-3-yl)-1H-benzo[d]imidazol-6-yl)-L-proline] | IC50 ([3]; numeric values): 0.3 nM
3.56 | 4.1 | > 50 | O=C(O)c1nnc(-c2cnn3ccc(N4CCC[C@@H]4c4cc(F)ccc4F)nc23)[nH]1 [Compound 17, (R)-5-(5-(2-(2,5-difluorophenyl)pyrrolidin-1-yl)pyrazolo[1,5-a]pyrimidin-3-yl)-4H-1,2,4-triazole-3-carboxylic acid] | t1/2 Human ([4]; 2 μM): ∞; microsomal CLint at 2 μM [4]: 0.27 µL/min/mg; half-life at 2 μM ([5]; male, read-out: t1/2 Rat): 10.4 h; CLint Rat ([5]; 2 μM): 0.00 μL/min/mg proteins; microsomal CLint at 2 μM ([6]; male): 2.23 µL/min/mg; t1/2 Mouse ([6]; 2 μM): ∞
20.8 | 30.1 |  | O=C(O)c1cc2nc(-c3cnn4ccc(N5CCC[C@@H]5c5cc(F)ccc5F)nc34)[nH]c2cc1F [Compound 141, (R)-2-(5-(2-(2,5-difluorophenyl)pyrrolidin-1-yl)pyrazolo[1,5-a]pyrimidin-3-yl)-6-fluoro-1H-benzo[d]imidazole-5-carboxylic acid] | IC50 ([3]; numeric values): 0.3 nM
1.83 | 0.98 | ≤ 10 | N#Cc1cccc(-c2nnc(-c3cnn4ccc(N5CCC[C@@H]5c5cc(F)ccc5F)nc34)[nH]2)c1 [Compound 13, (R)-3-(5-(5-(2-(2,5-difluorophenyl)pyrrolidin-1-yl)pyrazolo[1,5-a]pyrimidin-3-yl)-4H-1,2,4-triazol-3-yl)benzonitrile] | 
